Biological target: PI3K delta (Homo sapiens (Human), UniProt O00329)
Assay: Luciferase-coupled chemiluminescence kinase assay (KinaseGlo, ATP consumption)
Type: biochemical
Procedure, shortened: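 Kinase, compound and ATP (at or below KM) reacted 2 h at ambient temperature; remaining ATP detected by KinaseGlo luciferase chemiluminescence as percent ATP consumed. 10-point dose-response, curves fitted to give IC50.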

Sequence of PI3K delta (O00329 whole entry): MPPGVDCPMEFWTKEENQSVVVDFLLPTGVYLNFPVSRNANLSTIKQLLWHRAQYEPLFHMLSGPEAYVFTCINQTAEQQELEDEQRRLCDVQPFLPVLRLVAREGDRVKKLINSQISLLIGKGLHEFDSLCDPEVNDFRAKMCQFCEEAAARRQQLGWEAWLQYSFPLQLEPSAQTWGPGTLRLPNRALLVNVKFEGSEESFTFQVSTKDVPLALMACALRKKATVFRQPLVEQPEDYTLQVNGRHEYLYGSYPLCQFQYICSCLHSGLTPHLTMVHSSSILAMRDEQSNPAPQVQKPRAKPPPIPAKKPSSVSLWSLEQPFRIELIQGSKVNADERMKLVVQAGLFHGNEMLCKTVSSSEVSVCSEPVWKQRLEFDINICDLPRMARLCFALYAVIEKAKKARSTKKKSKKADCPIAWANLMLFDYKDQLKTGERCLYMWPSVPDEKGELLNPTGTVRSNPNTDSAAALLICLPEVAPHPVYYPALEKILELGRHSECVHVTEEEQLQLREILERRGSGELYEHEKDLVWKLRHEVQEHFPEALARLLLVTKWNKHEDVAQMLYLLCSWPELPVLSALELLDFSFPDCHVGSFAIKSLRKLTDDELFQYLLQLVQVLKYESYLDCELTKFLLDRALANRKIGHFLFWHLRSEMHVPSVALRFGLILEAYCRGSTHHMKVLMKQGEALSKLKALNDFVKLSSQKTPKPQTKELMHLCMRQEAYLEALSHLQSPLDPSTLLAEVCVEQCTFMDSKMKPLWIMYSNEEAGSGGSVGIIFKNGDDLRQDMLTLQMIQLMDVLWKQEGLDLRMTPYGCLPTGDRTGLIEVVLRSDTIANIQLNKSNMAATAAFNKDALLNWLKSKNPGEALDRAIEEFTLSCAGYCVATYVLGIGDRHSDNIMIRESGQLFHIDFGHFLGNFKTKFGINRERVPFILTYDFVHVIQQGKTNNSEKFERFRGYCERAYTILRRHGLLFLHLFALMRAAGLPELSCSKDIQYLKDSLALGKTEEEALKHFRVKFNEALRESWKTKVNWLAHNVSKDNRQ
Sequence of PI3K delta (P27986 whole entry partner): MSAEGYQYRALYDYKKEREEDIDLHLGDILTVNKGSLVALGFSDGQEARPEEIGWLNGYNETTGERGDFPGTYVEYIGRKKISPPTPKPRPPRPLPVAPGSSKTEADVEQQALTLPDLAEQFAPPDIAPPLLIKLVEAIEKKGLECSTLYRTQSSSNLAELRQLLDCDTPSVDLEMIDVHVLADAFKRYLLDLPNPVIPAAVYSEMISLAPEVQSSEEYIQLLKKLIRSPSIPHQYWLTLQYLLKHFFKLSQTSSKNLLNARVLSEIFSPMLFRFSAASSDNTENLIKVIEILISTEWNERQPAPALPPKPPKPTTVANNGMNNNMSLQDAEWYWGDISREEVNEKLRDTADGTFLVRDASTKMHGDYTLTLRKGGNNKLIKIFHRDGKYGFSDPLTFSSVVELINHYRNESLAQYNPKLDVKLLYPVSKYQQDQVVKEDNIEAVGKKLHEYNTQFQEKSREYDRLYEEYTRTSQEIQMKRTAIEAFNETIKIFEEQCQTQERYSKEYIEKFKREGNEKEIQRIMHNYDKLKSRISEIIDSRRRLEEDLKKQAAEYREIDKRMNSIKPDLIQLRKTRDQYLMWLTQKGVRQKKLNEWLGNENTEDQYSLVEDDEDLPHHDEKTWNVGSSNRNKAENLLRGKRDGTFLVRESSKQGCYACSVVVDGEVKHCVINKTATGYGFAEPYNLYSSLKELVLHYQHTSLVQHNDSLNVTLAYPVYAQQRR

Row | SMILES | IC50 [nM]
1 | Cc1ccccc1-n1c(CNC(=O)c2nccnc2N)nc2cccc(C)c2c1=O [Compound 175, 3-amino-N-{[5-methyl-3-(2-methylphenyl)-4-oxo-3,4-dihydroquinazolin-2-yl]methyl}pyrazine-2-carboxamide] | < 50
2 | Cc1ccccc1-n1c(CNC(=O)c2cccnc2N)nc2cccc(C)c2c1=O [Compound 176, 2-amino-N-{[5-methyl-3-(2-methylphenyl)-4-oxo-3,4-dihydroquinazolin-2-yl]methyl}pyridine-3-carboxamide] | 500 to 1500
3 | Cc1cccc2cc(Cn3cnc4c(N)ncnc43)c(N3CCOCC3)nc12 [Compound 177, 9-[(8-methyl-2-morpholin-4-ylquinolin-3-yl)methyl]-9H-purin-6-amine] | 50 to 250
4 | Cc1ccccc1-c1cc2ccccc2nc1Cn1cnc2ncnc(N)c21 [Compound 178, 7-{[3-(2-methylphenyl)quinolin-2-yl]methyl}-7H-purin-6-amine] | 50 to 250
5 | Cc1ccccc1-c1cc2ccccc2nc1Cn1cnc2c(N)ncnc21 [Compound 179, 9-{[3-(2-methylphenyl)quinolin-2-yl]methyl}-9H-purin-6-amine] | 500 to 1500
6 | Cc1cccc(-c2nc3c(C)cccc3cc2Cn2cnc3c(N)ncnc32)c1C [Compound 180, 9-{[2-(2,3-dimethylphenyl)-8-methylquinolin-3-yl]methyl}-9H-purin-6-amine] | 500 to 1500
7 | Cc1cccc2cc(Cn3cnc4c(N)ncnc43)c(-c3ccccc3C(F)(F)F)nc12 [Compound 182, 9-({8-methyl-2-[2-(trifluoromethyl)phenyl]quinolin-3-yl}methyl)-9H-purin-6-amine] | 50 to 250

Now from value to compound:

Row | IC50 [nM] | SMILES
8 | 250 to 500 | Cc1cccc(-c2nc3c(C)cccc3cc2Cn2cnc3c(N)ncnc32)c1 [Compound 183, 9-{[8-methyl-2-(3-methylphenyl)quinolin-3-yl]methyl}-9H-purin-6-amine]
9 | 250 to 500 | COCCOc1cccc(-c2nc3c(C)cccc3cc2Cn2cnc3c(N)ncnc32)c1 [Compound 184, 9-{[8-methyl-2-(3-{[2-(methyloxy)ethyl]oxy}phenyl)quinolin-3-yl]methyl}-9H-purin-6-amine]
10 | 250 to 500 | COc1cccc(-c2nc3c(C)cccc3cc2Cn2cnc3c(N)ncnc32)c1 [Compound 185, 9-({8-methyl-2-[3-(methyloxy)phenyl]quinolin-3-yl}methyl)-9H-purin-6-amine]
11 | 50 to 250 | Cc1cccc2cc(Cn3cnc4c(N)ncnc43)c(-c3ccccc3Cl)nc12 [Compound 187, 9-{[2-(2-chlorophenyl)-8-methylquinolin-3-yl]methyl}-9H-purin-6-amine]
12 | 50 to 250 | Cc1ccccc1-c1nc2c(C)cccc2cc1CSc1ncnc2[nH]cnc12 [Compound 188, 8-methyl-2-(2-methylphenyl)-3-[(9H-purin-6-ylthio)methyl]quinoline]
13 | 50 to 250 | Cc1ccccc1-c1nc2c(C)cccc2cc1Cn1cnc2c(N)ncnc21 [Compound 189, 9-{[8-methyl-2-(2-methylphenyl)quinolin-3-yl]methyl}-9H-purin-6-amine]
14 | 500 to 1500 | Cc1ccccc1-c1nc2ccccc2nc1Cn1cnc2c(N)ncnc21 [Compound 190, 9-{[3-(2-methylphenyl)quinoxalin-2-yl]methyl}-9H-purin-6-amine]
15 | 500 to 1500 | Cc1ccccc1-c1nc2ccccc2cc1Cn1cnc2c(N)ncnc21 [Compound 191, 9-{[2-(2-methylphenyl)quinolin-3-yl]methyl}-9H-purin-6-amine]
